Reference: US8088819B2, “Derivatives of substituted 3-phenyl-1-(phenylthienyl)propan-1-ones and of 3-phenyl-1-(phenylfuranyl) propan-1-ones, preparation and use” (priority 2006, dated 2012)
pEC50: −log10 of the molar value.

Experiments:
hPPARdelta = target: T1, hPPARdelta (Homo sapiens, UniProt Q03181); assay: PPAR activation: Gal4-hPPARδ chimera luciferase transactivation in COS-7 cells, Method 2; type: cell-based; details: COS-7, 24 h; for pEC50: 1% Ultroser; for Emax: maximum percentage response relative to the reference GW501516, read-out: hPPARdelta % max
T1 construct: expressed in transfected cells; host or cells: COS-7 (monkey kidney fibroblasts)
T1 sequence (Q03181 211-439 limits assumed): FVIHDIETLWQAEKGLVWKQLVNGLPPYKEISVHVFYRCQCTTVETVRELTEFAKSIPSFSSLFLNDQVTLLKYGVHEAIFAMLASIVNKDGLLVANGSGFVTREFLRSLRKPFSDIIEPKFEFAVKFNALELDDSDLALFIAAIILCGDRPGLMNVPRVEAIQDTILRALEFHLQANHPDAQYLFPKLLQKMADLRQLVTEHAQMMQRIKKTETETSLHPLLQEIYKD
Method: (§1) The activation of the PPARs was evaluated in vitro on a line of monkey kidney fibroblasts (COS-7) by measuring the transcriptional activity of chimeras constituted of the DNA binding domain of the Gal4 transcription factor of yeast and the ligand binding domain of the various PPARs. The compounds were tested at doses between 10^−5 and […] on the chimeras Gal4-PPARα, γ or δ, and the corresponding EC50 values were determined.
(§2) The principle, the cells and the plasmids used for example 5 were also employed in this example. Only the application of the transfection stage is slightly different. The details are presented below.
(§3) The adherent COS-7 cells are transfected with 40 μg of DNA per 225 cm^2 dish, with a pGal4-PPAR/Gal4(RE)_TkpGL3 ratio of 1/10, in the presence of 10% fetal calf serum. The cells are then detached and seeded in the absence of serum in 384-well plates (2×10^4 cells/well) and incubated for 4 hours at 37° C. The compounds are then diluted in a 96-well plate and transferred to the 384-well plate. Activation with the test compounds is carried out for an additional 24 h at 37° C. in the presence of 1% of Ultroser™ lipid-free synthetic serum (Biosepra). These last 2 stages are automated using a Genesis Freedom 200™ station (Tecan). At the end of the experiment, the cells are lysed and the luciferase activity is determined using the Steady-Lite™ HTS (Perkin Elmer) following the supplier's recommendations.

hPPARalpha = target: T2, hPPARalpha (Homo sapiens, UniProt Q07869); assay: PPAR activation: Gal4-hPPARα chimera luciferase transactivation in COS-7 cells, Method 2; type: cell-based; details: COS-7, 24 h; for pEC50: 1% Ultroser; for Emax: maximum percentage response relative to the reference phenofibric acid, read-out: hPPARalpha % max
T2 construct: expressed in transfected cells; host or cells: COS-7 (monkey kidney fibroblasts)
T2 sequence (Q07869 239-466 limits assumed): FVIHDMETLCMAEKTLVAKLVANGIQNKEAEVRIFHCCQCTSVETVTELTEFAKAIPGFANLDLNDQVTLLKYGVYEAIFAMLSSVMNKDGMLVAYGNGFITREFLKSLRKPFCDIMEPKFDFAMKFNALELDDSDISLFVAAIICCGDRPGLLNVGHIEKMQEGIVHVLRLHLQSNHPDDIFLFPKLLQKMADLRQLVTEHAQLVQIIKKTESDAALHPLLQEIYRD
Method: as §1, §2, §3

hPPARgamma = target: T3, hPPARgamma (Homo sapiens, UniProt P37231); assay: PPAR activation: Gal4-hPPARγ chimera luciferase transactivation in COS-7 cells, Method 2; type: cell-based; details: COS-7, 24 h, Method 2; for Emax: maximum percentage response relative to the reference rosiglitazone, read-out: hPPARgamma % max; for pEC50: 1% Ultroser, read-out: hPPARgamma EC50
T3 construct: expressed in transfected cells; host or cells: COS-7 (monkey kidney fibroblasts)
T3 sequence (P37231 238-503 limits assumed): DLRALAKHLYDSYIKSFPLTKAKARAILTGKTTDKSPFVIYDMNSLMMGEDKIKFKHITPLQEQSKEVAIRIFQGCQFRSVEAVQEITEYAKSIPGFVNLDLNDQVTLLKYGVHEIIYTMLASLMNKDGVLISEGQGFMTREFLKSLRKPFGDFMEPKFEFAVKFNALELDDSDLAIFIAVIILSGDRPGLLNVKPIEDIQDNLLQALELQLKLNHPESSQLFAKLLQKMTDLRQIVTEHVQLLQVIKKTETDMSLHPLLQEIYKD
Method: The activation of the PPARs was evaluated in vitro on a line of monkey kidney fibroblasts (COS-7) by measuring the transcriptional activity of chimeras constituted of the DNA binding domain of the Gal4 transcription factor of yeast and the ligand binding domain of the various PPARs.
Only the application of the transfection stage is slightly different. The details are presented below.
as §3

[1] = tested on: target genes of PPARδ in murine myocytes (C2C12); assay: Expression of target genes of PPARδ (PDK4, CPT1b, UCP2, UCP3) in murine myocytes, quantitative RT-PCR; type: cell-based; details: murine myocytes in vitro
Description: It is established that regulation of the expression of these genes is directly controlled by PPARδ in this cell type. The more the expression of the genes is increased, the greater the stimulating action of the compound according to the invention on metabolism in the muscle cells.
Cells from the murine cell line C2C12 (obtained from ECACC) are cultivated in DMEM medium (Gibco; 41965-039) with addition of 1% L-glutamine (Gibco; 25030), 1% of penicillin/streptomycin (VWR; BWSTL0022/100) and 10% decomplemented fetal calf serum (FCS. Gibco; 10270-106).
The cells are seeded on 24-well plates at a density of 50·10^3 cells/well. At confluence, the medium is replaced with a differentiating medium (basal medium with addition of 2% of horse serum (Gibco; 26050-088)), then incubated at 37° C. and 5% CO2 for 4 days in order to differentiate them to myocytes.
After 5 days of differentiation, the cells are put in a deprivation medium (basal medium without serum) for 6 hours. The cells are then treated with the compounds according to the invention in the deprivation medium. Compounds 2, 4, 7, 11, 39, 40, 46, 49 and 72 were in dose effect, corresponding to 1×, 10× and 100× their EC50 PPARδ. The compounds according to the invention were dissolved in dimethylsulfoxide (DMSO, Sigma; D5879). The cells were treated for 24 h at 37° C., 5% CO2. The effect of the compounds according to the invention was compared with the effect of DMSO alone.
After treatment, the total RNA is extracted from the cells using the NucleoSpine® 96 RNA kit (Macherey Nagel, Hoerdt, France) following the manufacturer's instructions.
1 μg of total RNA (quantified based on the UV spectrophotometer reading) was then reverse-transcribed to complementary DNA by reaction for 1 hour at 37° C. in a total volume of 30 μl containing buffer 1× (Invitrogen), 1.5 mM of DTT, 0.18 mM of dNTPs (Promega), 200 ng of pdN6 (Amersham), 30 U of RNase inhibitor (Promega) and 1 μl of MMLV-RT (Invitrogen).
The quantitative PCR experiments were carried out using the MyiQ Single-Color Real-Time PCR Detection System (Biorad, Marnes-la-Coquette, France) and were performed using the iQ SYBR Green Supermix kit following the supplier's recommendations, in 96-well plates, on 5 μl of diluted reverse-transcription reaction mixtures with a hybridization temperature of 60° C. Primer pairs specific to the PDK4, CPT1b, UCP2 and UCP3 genes under investigation were used:
The amount of fluorescence emitted is directly proportional to the amount of complementary DNA present at the start of the reaction and amplified during PCR. For each target investigated, a range is produced by successive dilutions of a pool constituted of a few microliters of various reverse-transcription reaction mixtures. The relative expression levels of each target are thus determined using the efficacy curves obtained with the points in the range.
The levels of expression of the genes of interest were then normalized relative to the level of expression of the reference gene 36B4 (whose specific primers are: sense primer: 5′-[…]-3′ (SEQ ID No. 19) and antisense primer: 5′-[…]-3′ (SEQ ID No. 20)). The induction factor, i.e. the ratio of the relative signal (induced by the compound according to the invention) to the mean of the relative values of the control group, was then calculated. The higher this factor, the greater the activating character of the compounds according to the invention with respect to gene expression. The final result is represented as the mean of the induction values in each experimental group.

Compound	pEC50 (hPPARdelta)	Emax (hPPARdelta) [%]	melting point [°C]	pEC50 (hPPARalpha)	Emax (hPPARalpha) [%]	Emax (hPPARgamma) [%]	pEC50 (hPPARgamma)	expression of genes involved in carbohydrate and lipid metabolism and in thermoregulation [1]
CSc1ccc(-c2ccc(C(=O)CCc3ccc(OC(C)(C)C(=O)O)c(Cl)c3Cl)s2)cc1 [Compound 54, 2-(2,3-dichloro-4-(3-(5-(4-(methylthio)phenyl)thien-2-yl)-3-oxo-propyl)phenoxy)-2-methylpropanoic acid]	7.15	107	171 to 172	6.82	43	62	6.07	
CC(C)OC(CCc1ccc(OC(C)(C)C(=O)O)c(Cl)c1Cl)c1ccc(-c2ccc(C(F)(F)F)cc2)s1 (stereo not shown) [Compound 55, 2-(2,3-dichloro-4-(3-isopropoxy-3-(5-(4-(trifluoromethyl)-phenyl)thien-2-yl)propyl)phenoxy)-2-methylpropanoic acid]	5.33	34	88 to 90	5.55	25	2		
CC(C)(Oc1ccc(CCC(=O)c2ccc(-c3ccccc3)s2)c(Cl)c1Cl)C(=O)O [Compound 57, 2-(2,3-dichloro-4-(3-oxo-3-(5-phenylthien-2-yl)propyl)phenoxy)-2-methylpropanoic acid]	6.46	88	179 to 180	6.00	44	39	5.82	
Cc1cc(CCC(=O)c2ccc(-c3ccc(C(F)(F)F)cc3)s2)ccc1OC(C)(C)C(=O)O [Compound 59, 2-methyl-2-(2-methyl-4-(3-oxo-3-(5-(4-(trifluoromethyl)phenyl)-thien-2-yl)propyl)phenoxy)propanoic acid]	7.52	107	130 to 131		47	57	6.64	
CC(C)(Oc1ccc(CCC(OCc2ccccc2)c2ccc(-c3ccc(C(F)(F)F)cc3)s2)c(F)c1F)C(=O)O (stereo not shown) [Compound 63, 2-(4-(3-(benzyloxy)-3-(5-(4-(trifluoromethyl)phenyl)thien-2-yl)-propyl)-2,3-difluorophenoxy)-2-methylpropanoic acid]	6.74	97		5.38	46	44	5.10	stimulating effects
CC(C)(Oc1ccc(CCC(=O)c2ccc(-c3ccc(C(F)(F)F)cc3)s2)cc1)C(=O)O [Compound 67, 2-(4-(3-oxo-3-(5-(4-(trifluoromethyl)phenyl)thien-2-yl)propyl)-phenoxy)-2-methylpropanoic acid]	6.44	75	154 to 155	8.00	45	37	5.32	
COC(CCc1ccc(OC(C)(C)C(=O)O)c(Cl)c1Cl)c1ccc(-c2ccc(C(F)(F)F)cc2)o1 (stereo not shown) [Compound 72, 2-(2,3-dichloro-4-(3-methoxy-3-(5-(4-(trifluoromethyl)phenyl)fur-2-yl)propyl)phenoxy)-2-methylpropanoic acid]		97		6.57	59	70	6.80	stimulating effects
